The values that follow come from publication PMC12916490 (Molecular Psychiatry, 2025).

The target of one test is h5-HT2B (Homo sapiens, UniProt P41595). Briefly: Radioligand binding, h5-HT2B receptor ([3H]LSD).
Test [1] has as its target T1, h5-HT2A (Homo sapiens, UniProt P28223). Briefly: IP1 formation (Gαq-mediated signaling), h5-HT2A. As to conditions: for Emax: read-out: IP1 formation Emax h5-HT2A (95% CI). On the set-up: expressed in transfected cells; host or cells: HEK 293 cells (membrane preparation). It counts as cell-based.
The test system of another test is 5-HT2A receptor. Briefly: 5-HT2A receptor activation bias factors (relative intrinsic activity, 5-HT reference). Type of test: cell-based, human. Particulars: 5-HT as reference agonist; positive = preference for numerator pathway. As to the method: (§1) The IC50 values from the radioligand binding assays were determined by nonlinear regression, using three independent concentration-response curves fitted to a one-site model. The Cheng-Prusoff equation was used to calculate Kᵢ values for the competing ligands. EC50 values were determined by applying nonlinear regression to concentration-response curves. Bias factors (β) were calculated based on the relative intrinsic activity approach. More detailed information can be found in the Supplementary information. Mean values for total number of HTR, change in body temperature from pre to post session (Δ°C), and total distance traveled (cm) for each drug dose were compared (p < 0.05) via Welch’s ANOVA with Dunnett’s T3 post test, comparing all doses to respective vehicle controls (0 mg/kg). Welch’s ANOVA with Dunnett’s T3 post test was also used to compare drug concentrations, but the data were compared to DOM in this case. Dose–response relationships for HTR and locomotor activities were plotted using bell-shaped curve fits, while temperature change data were plotted using four-parameter non-linear regression curve fits. The ascending phase of the HTR curve for each drug was used to determine ED50 potency values from four parameter non-linear regression fits. For combined DOM and DOAM administration, the plasma, brain tissue, and brain dialysate drug concentrations were compared using paired t-tests (p < 0.05).
Bias factors close to 0 imply no bias toward either tested signaling pathway. Positive values indicate a preference for pathway 1, and negative values indicate a preference for pathway 2, relative to the reference agonist 5-HT. […]
(§2) the β-arrestin 2 molecule in the NanoBiT system) were seeded at a density of 50,000 cells per well in poly - D-lysine-coated 96-well plates in medium containing 10% dialyzed FBS. The plate was then incubated at […]
(§3) The following day, the cells were washed twice with 150 µL HBSS, and 100 µL HBSS was subsequently added to each well. Thereafter, 25 µL of substrate (1 :20 diluted in buffer) was added, and […]
(§4) agonist solutions was added, and the signal was monitored for 2 h. Drug dilutions in HBSS were made from 10 mM stock solutions in DMSO , yielding concentration ranges from 10 µM to 10 pM. All concentrations were run in duplicate and included the appropriate solvent controls. Efficacy was normalized to 5 -HT […]
(§5) 3.2.3 Arachidonic acid release
(§6) Arachidonic acid release was assessed as a marker for Gαi/o,12/13 mediated signaling.
(§7) NIH/3T3 cells stably expressing the 5 -HT2A receptor were seeded at a density of 75,000 cells per well in a poly-D-lysine-coated 48-well plate. The following day, the cells were labeled with 300 μL [ 3H]arachidonic […]
(§8) Thereafter, the cells were washed 3 times for
(§9) (10 mM) of test substances were prepared in DMSO. The final dilution series of test substances dissolved […]
(§10) Thereafter, the plate was put on ice, and 400 μL incubation supernatant per well was transferred int o scintillation vials containing scintillation fluid (Ultimagold, Perkin Elmer, Schwerzenbach, Switzerland). The remaining supernatant was removed, and the cells were lysed with 1% sodium dodecyl sulfate lysis buffer. The obtained cell lysate was transferred into scintillation vials containing scintillation fluid. Radioactivity was measured on a liquid scintillation counter (Packard 1900 TR Tri-Carb Liquid Scintillation Counter; Packard Instrument Company). Efficacy was normalized to 5-HT activity.
(§11) 3.2.4 Calculation of bias factors […]
(§12) using 5-HT as the reference agonist.
(§13) RApathway = EC50, i = EC50, ref×Emax,i […]
Then, the obtained RA values were used to calculate the bias factor (β) for each pathway combination. […]
pathway 1 over pathway 2. Brown-Forsythe and Welch ANOVA analyses were applied to estimate the […]

The target in test [2] is T1, h5-HT2A. Briefly: β-arrestin 2 recruitment (NanoBiT), h5-HT2A. As to conditions: for Emax: read-out: β-arrestin 2 recruitment Emax h5-HT2A (95% CI). Further details: expressed in transfected cells. Type of test: cell-based. The method, then:
Activation of h5-HT2A, h5-HT2B, and h5-HT2C receptors was examined by measuring the accumulation of inositol monophosphate (IP1) as a marker for Gαq-mediated signaling. For h5-HT2A, additional assays measured β-arrestin 2 recruitment and arachidonic acid release, the latter serving as a marker of Gαi/o,12/13 activation. The methodology is described in detail in the Supplementary information.
as §1, with “0.05). […]” for “0.05).”
as §2, §3, §4, §5, §6, §7, §8, §9, §10, §11, §12, §13

The Ki is the dissociation constant of the complex between target and ligand, obtained from inhibition or displacement. For orientation: Emax means the maximal effect, on the per cent scale that the assay sets. Usually EC50 stands for the concentration at which the effect is half-maximal. Higher therefore signals weaker potency.

h5-HT2B, sequence (P41595 whole entry): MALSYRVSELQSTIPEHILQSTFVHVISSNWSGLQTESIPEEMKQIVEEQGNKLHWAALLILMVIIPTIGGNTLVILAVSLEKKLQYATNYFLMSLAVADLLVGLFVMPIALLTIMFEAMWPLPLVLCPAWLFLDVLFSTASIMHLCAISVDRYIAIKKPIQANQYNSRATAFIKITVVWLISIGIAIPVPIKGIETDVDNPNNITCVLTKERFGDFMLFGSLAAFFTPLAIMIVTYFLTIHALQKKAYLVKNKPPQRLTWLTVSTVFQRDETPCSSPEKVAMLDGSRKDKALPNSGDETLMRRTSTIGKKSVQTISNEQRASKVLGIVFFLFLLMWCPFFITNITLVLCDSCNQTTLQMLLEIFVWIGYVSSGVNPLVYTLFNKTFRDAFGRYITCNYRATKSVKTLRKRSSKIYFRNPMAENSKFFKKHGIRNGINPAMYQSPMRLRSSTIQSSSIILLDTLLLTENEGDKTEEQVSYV
T1 sequence (P28223 whole entry, looked up): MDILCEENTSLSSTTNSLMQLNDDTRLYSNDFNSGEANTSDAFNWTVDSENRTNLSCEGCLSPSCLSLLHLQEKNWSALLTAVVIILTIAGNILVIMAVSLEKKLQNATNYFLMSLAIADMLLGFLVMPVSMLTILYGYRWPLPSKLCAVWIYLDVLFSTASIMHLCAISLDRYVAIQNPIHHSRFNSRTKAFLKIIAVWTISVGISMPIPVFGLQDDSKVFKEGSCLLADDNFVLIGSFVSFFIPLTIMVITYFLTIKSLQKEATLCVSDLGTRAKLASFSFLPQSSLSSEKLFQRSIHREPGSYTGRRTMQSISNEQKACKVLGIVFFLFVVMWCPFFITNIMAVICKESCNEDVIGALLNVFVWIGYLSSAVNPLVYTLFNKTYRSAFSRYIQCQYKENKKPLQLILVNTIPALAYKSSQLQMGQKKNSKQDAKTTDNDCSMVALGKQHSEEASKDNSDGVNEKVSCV

As to `COc1ccc(OC)c(CC(C)N)c1.Cl` (stereo not drawn) [2,5-DMA, 2,5-Dimethoxyamphetamine hydrochloride], at h5-HT2B, the inhibition constant Ki worked out at 5.18 µM. Also, at h5-HT2A [1], the Emax came out at 99%. For the same molecule, in the test with 5-HT2A receptor, the “Bias factor β Gαi/o,12/13/Gαq” value is given as 0.37, the “Bias factor β Gαi/o,12/13/β-arrestin 2” value is given as 0.29 and the “Bias factor β β-arrestin 2/Gαq” value came out at 0.09. Besides, the maximal effect (Emax) on h5-HT2A [2] was found to be 83%.

Consider `CCCCCc1cc(OC)c(CC(C)N)cc1OC` (stereo not drawn) [DOAM, 4-amyl-2,5-dimethoxyamphetamine], for which, on h5-HT2B, affinity was put at a Ki of 0.098 µM. Besides, at h5-HT2A [1], the “Agonist type for Gαq signaling at the 5-HT2A receptor” value (from here on “Agonist type for Gαq signaling”) is recorded as “high efficacy partial agonists”, it took 0.0081 µM to reach a half-maximal effect (EC50) and the Emax amounted to 83%. Moreover, in the test with 5-HT2A receptor, the “Bias factor β Gαi/o,12/13/Gαq” value is recorded as -0.30, the “Bias factor β Gαi/o,12/13/β-arrestin 2” value is given as 0.43 and the “Bias factor β β-arrestin 2/Gαq” value is given as -0.73. Moreover, at h5-HT2A [2], the response was half-maximal at 0.056 µM (EC50) and the Emax stood at 85%.

Regarding `CCCCc1cc(OC)c(CC(C)N)cc1OC` (stereo not drawn) [DOBU, 4-butyl-2,5-dimethoxyamphetamine], the Ki at h5-HT2B worked out at 0.162 µM. On h5-HT2A [1], the “Agonist type for Gαq signaling” value was “high efficacy partial agonists”, a half-maximal response (EC50) required 0.0028 µM and the Emax was found to be 90%. In addition, in the test on 5-HT2A receptor, the “Bias factor β Gαi/o,12/13/Gαq” value was -0.61, the “Bias factor β Gαi/o,12/13/β-arrestin 2” value is reported as 0.25 and the “Bias factor β β-arrestin 2/Gαq” value is reported as -0.86. On h5-HT2A [2], the “Agonist type in the β-arrestin 2 recruitment assay at the 5-HT2A receptor” value is recorded as “full agonists”, a half-maximal response (EC50) required 0.024 µM and the Emax was found to be 96%.

Consider `CCc1cc(OC)c(CC(C)N)cc1OC` (stereo not drawn) [DOET, 4-ethyl-2,5-dimethoxyamphetamine], for which, at h5-HT2B, the Ki is 0.174 µM. For the same molecule, at h5-HT2A [1], the “Agonist type for Gαq signaling” value was “high efficacy partial agonists”, the response was half-maximal at 0.012 µM (EC50) and the Emax amounted to 93%. In the test with 5-HT2A receptor, the “Bias factor β Gαi/o,12/13/Gαq” value is 0.16, the “Bias factor β Gαi/o,12/13/β-arrestin 2” value is recorded as 0.07 and the “Bias factor β β-arrestin 2/Gαq” value turned out to be 0.08. Moreover, at h5-HT2A [2], the “Agonist type in the β-arrestin 2 recruitment assay at the 5-HT2A receptor” value is “full agonists”; the midpoint of the response, the EC50, lay at 0.012 µM; the maximum response (Emax) came out at 99%.

Regarding `COc1cc(CC(C)N)c(OC)cc1C` (stereo not drawn) [DOM, 4-methyl-2,5-dimethoxyamphetamine], the Ki on h5-HT2B stood at 0.149 µM. For the same molecule, on h5-HT2A [1], the “Agonist type for Gαq signaling” value is “high efficacy partial agonists”, a half-maximal effect (EC50) was put at 0.021 µM and the maximal response (Emax) stood at 92%. Besides, in the test with 5-HT2A receptor, the “Bias factor β Gαi/o,12/13/Gαq” value came to 0.04, the “Bias factor β Gαi/o,12/13/β-arrestin 2” value is 0.39 and the “Bias factor β β-arrestin 2/Gαq” value was -0.35. Also, at h5-HT2A [2], the “Agonist type in the β-arrestin 2 recruitment assay at the 5-HT2A receptor” value is listed as “full agonists”, the EC50 turned out to be 0.055 µM and the Emax stood at 97%.

The molecule `CCCc1cc(OC)c(CC(C)N)cc1OC.Cl` (stereo not drawn) [DOPR, 4-propyl-2,5-dimethoxyamphetamine hydrochloride] came in with an inhibition constant Ki at h5-HT2B of 0.126 µM. Besides, on h5-HT2A [1], the midpoint of the response, the EC50, lay at 0.0019 µM and the Emax was found to be 96%. Also, in the test with 5-HT2A receptor, the “Bias factor β Gαi/o,12/13/Gαq” value is recorded as -0.53, the “Bias factor β Gαi/o,12/13/β-arrestin 2” value is reported as 0.11 and the “Bias factor β β-arrestin 2/Gαq” value is given as -0.64. For the same molecule, at h5-HT2A [2], the “Agonist type in the β-arrestin 2 recruitment assay at the 5-HT2A receptor” value was “full agonists”, the 50% effective concentration (EC50) amounted to 0.0093 µM and the Emax was found to be 105%.
